What is called stoichiometry N is the number of molecules, sites or subunits per partner or assembly.

Consider 2 molecules from article PMC5061557 (Structure (London, England : 1993), 2016).

One series concerns the target WTHslU (Escherichia coli, UniProt P0A6H5). The series is described as follows: NADH-coupled ATPase assay. As to conditions: 5 mM ATP, pH 7.5, 20 mM MgCl2, 37 °C, without HslV. Type of series: biochemical.
The series “crystal structure” concerns the molecule itself. The series is described as follows: crystal structure.

Chain of WTHslU (P0A6H5 whole entry): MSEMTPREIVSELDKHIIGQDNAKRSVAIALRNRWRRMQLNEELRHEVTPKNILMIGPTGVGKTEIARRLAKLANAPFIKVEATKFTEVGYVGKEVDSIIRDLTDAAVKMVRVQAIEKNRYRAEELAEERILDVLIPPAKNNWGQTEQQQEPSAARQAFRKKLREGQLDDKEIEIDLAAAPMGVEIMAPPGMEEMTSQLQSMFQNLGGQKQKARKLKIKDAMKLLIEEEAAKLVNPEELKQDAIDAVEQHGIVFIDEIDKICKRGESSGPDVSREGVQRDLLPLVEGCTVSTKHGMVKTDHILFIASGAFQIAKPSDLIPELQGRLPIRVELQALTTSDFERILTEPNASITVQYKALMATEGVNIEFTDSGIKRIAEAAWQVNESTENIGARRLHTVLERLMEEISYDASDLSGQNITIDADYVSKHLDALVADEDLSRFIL

Consider `Nc1ncnc2c1ncn2[C@@H]1O[C@H](COP(=O)(O)OP(=O)(O)OP(=O)(O)O)[C@@H](O)[C@H]1O` [ATP], for which, at WTHslU, the “NADH-coupled ATPase assay” value was “assayed rates of ATP hydrolysis for this enzyme and wild type”.

B1: E. coli L199Q HslU mutant with an N-terminal H6 tag (enzyme, UniProt P0A6H5 1-443, looked up)
chain: MSEMTPREIVSELDKHIIGQDNAKRSVAIALRNRWRRMQLNEELRHEVTPKNILMIGPTGVGKTEIARRLAKLANAPFIKVEATKFTEVGYVGKEVDSIIRDLTDAAVKMVRVQAIEKNRYRAEELAEERILDVLIPPAKNNWGQTEQQQEPSAARQAFRKKLREGQLDDKEIEIDLAAAPMGVEIMAPPGMEEMTSQQQSMFQNLGGQKQKARKLKIKDAMKLLIEEEAAKLVNPEELKQDAIDAVEQHGIVFIDEIDKICKRGESSGPDVSREGVQRDLLPLVEGCTVSTKHGMVKTDHILFIASGAFQIAKPSDLIPELQGRLPIRVELQALTTSDFERILTEPNASITVQYKALMATEGVNIEFTDSGIKRIAEAAWQVNESTENIGARRLHTVLERLMEEISYDASDLSGQNITIDADYVSKHLDALVADEDLSRFIL
For the molecule B1, the “stoichiometry N” value in the series “crystal structure” stood at 6.
